How the values were obtained:
FXa = FXa (Homo sapiens, UniProt P00742); assay: Factor Xa inhibition (FXa-IC50); assay type: biochemical; conditions: Table 1, pharmacological data, 'Affinity to receptors'
Excerpt: The inhibition of factor Xa by the compounds according to the invention and the measurement of the anticoagulant and antithrombotic activity can be determined by conventional in-vitro or in-vivo methods. A suitable method is described, for example, by J. Hauptmann et al. in Thrombosis and Haemostasis 1990, 63, 220-223.
The inhibition of factor Xa can be measured, for example by the method of T. Hara et al. in Thromb. Haemostas. 1994, 71, 314-319.

TF/FVIIa = TF/FVIIa (Homo sapiens, UniProt P08709); assay: TF/factor VIIa inhibition (TF/FVIIa-IC50); assay type: biochemical; conditions: Table 1, pharmacological data, 'Affinity to receptors'
Chain of TF/FVIIa (P08709 213-466 limits assumed): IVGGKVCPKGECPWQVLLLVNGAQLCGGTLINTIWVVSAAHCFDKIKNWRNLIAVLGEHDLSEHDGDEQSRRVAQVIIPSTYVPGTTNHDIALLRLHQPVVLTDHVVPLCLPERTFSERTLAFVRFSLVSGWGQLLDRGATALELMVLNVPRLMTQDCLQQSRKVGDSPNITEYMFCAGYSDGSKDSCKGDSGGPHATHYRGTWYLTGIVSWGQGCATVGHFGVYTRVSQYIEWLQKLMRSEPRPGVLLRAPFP
Chain of TF/FVIIa (P08709 61-212 limits assumed): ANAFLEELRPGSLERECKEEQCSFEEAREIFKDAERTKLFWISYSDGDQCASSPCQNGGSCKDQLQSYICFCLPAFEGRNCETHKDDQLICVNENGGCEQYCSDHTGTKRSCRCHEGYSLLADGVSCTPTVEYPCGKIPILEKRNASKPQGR
Chain of TF/FVIIa (P13726 33-295 partner): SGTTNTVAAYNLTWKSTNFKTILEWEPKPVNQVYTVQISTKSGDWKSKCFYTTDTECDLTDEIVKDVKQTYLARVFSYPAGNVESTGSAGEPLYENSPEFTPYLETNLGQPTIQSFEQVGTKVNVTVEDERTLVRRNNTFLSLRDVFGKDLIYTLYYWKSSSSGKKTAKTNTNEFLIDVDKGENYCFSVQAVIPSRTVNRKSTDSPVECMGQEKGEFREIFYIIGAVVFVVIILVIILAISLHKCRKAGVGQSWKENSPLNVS
Excerpt: The inhibition of factor Vila by the compounds according to the invention and the measurement of the anticoagulant and antithrombotic activity can be determined by conventional in-vitro or in-vivo methods. A conventional method for the measurement of the inhibition of factor VIIa is described, for example, by H. F. Ronning et al. in Thrombosis Research 1996, 84, 73-81.

Chain of FXa (P00742 235-488 limits assumed): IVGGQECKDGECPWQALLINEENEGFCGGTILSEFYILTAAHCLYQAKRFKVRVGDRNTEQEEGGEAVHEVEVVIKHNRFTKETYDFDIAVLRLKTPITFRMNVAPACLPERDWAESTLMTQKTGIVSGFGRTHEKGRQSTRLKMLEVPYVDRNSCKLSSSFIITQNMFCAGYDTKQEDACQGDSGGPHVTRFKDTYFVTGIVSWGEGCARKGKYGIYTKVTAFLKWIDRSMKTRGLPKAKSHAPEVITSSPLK
Chain of FXa (P00742 41-179 limits assumed): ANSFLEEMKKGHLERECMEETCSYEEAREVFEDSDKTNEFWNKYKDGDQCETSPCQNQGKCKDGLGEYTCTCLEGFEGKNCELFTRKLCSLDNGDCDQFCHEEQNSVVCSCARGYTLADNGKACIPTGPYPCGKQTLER

Row | IC50 (FXa) | IC50 (TF/FVIIa) | Compound
1 | 220 nM | 290 nM | NCc1cccc(NC(C(=O)Nc2ccc(N3CCCC3=NO)c(Cl)c2)c2ccccc2)c1 (racemic) [AA, (R, S)-2-(3-aminomethylphenylamino)-N-[3-chloro-4-(2-hydroxyiminopyrrolidin-1-yl)phenyl]-2-phenylacetamide]
2 | 58 nM | 99 nM | N=C1CCCN1c1ccc(NC(=O)C(Nc2cccc(CN)c2)c2ccccc2)cc1Cl (racemic) [AB, (R, S)-2-(3-aminomethylphenylamino)-N-[3-chloro-4-(2-iminopyrrolidin-1-yl)phenyl]-2-phenylacetamide]
3 | 680 nM | 490 nM | CON=C1CCCCN1c1ccc(NC(=O)[C@H](CC(C)C)Oc2ccc3ccnc(N)c3c2)cc1 (single isomer, unassigned) [BA]
4 | 2700 nM | 2000 nM | CC(C)C[C@H](Oc1ccc2ccnc(N)c2c1)C(=O)Nc1ccc(N2CCCCC2=N)cc1 [BB, (S)-2-(1-aminoisoquinolin-7-yloxy)-N-[4-(2-iminopiperidin-1-yl)phenyl]-4-methylvaleramide]
5 | 66 nM | 130 nM | Cc1cc(NC(=O)C(Nc2cccc(CN)c2)c2ccccc2Cl)ccc1N1CCCC1=NCCN(C)C (stereo not shown) [DA, 2-(3-aminomethylphenylamino)-N-[3-methyl-4-(2-(2-dimethylaminoethylimino)pyrrolidin-1-yl)phenyl]-2-(2-chloro)phenyl-acetamide]

Source: patent US20050176760A1, “N-'4-(2-imino-pyrrolidin-1-yl)phenyl!-acetamide and corresponding piperidine derivatives as factor xa inhibitors for the treatment of thrombo-embolic diseases” (Merck Patent GmbH, priority 2002, published 2005)
